According to US20070208069A1, “PHARMACEUTICAL FORMULATIONS OF AN ANHYDROUS CRYSTAL FORM OF 2-(3-FLUORO-4-HYDROXYPHENYL)-7-VINYL-1,3-BENZOXAZOL-5-OL” (Wyeth, priority 2006, published 2007):

Tests used:
Assay type in all cases: physicochemical
[1] = Chemical stability on storage (HPLC); conditions: non-micronized, 40° C./75% RH, three months
Protocol: (§1) Non-micronized samples of monohydrate and anhydrate were stored at 40° C./75% RH for three months. The monohydrate was also stored at 40° C. without humidity control. During the three months, the samples were checked after two weeks, one month, two months, and three months.

[2] = Dynamic vapor sorption (hygroscopicity); conditions: for DVS gain: 0–90% RH
Description: Dynamic Vapor Sorption (Allentown, Pa.) was used to measure the hygroscopicity of the anhydrate and monohydrate of the invention (see FIGS. 6 and 7). The step conditions were three hours each at 0%, 30%, 52.5%, 75% and 90% RH, two full cycles.

[3] = Solid-state stability of crystal forms (XRPD, TGA); conditions: for Long term crystal form stability (XRPD, TGA): three months (monohydrate also 40° C. without humidity control)
Protocol: […] At room temperature, humidity was maintained at 0% RH. Humidity was not controlled for the higher temperatures.
The samples were analyzed by XRPD and TGA.
as §1

[4] = Water solubility of the two crystal forms

| Structure (SMILES) | Long term chemical stability (HPLC) [1] | Hygroscopicity (DVS), in words [2] | DVS gain [2] | Crystal form stability (XRPD) ([3]; micronized, 25° C./60% RH, three months) | Crystal form stability (XRPD) ([3]; micronized, 40° C./75% RH, one month) | Crystal form stability (XRPD) ([3]; non-micronized, 40° C./75% RH) | Long term crystal form stability (XRPD, TGA) ([3]; non-micronized, 40° C./75% RH) | Water solubility compared between forms, in words [4] | Medium term stability (XRPD, TGA) ([3]; 56° C., humidity not controlled, one week) | Medium term stability (XRPD, TGA) ([3]; 70° C., 1 day) | Medium term stability (XRPD, TGA) ([3]; 70° C., 4 days) | Medium term stability (XRPD, TGA) ([3]; 70° C., 7 days) | Short term stability (XRPD) ([3]; 70° C., one hour) | Short term stability (XRPD) ([3]; 90° C., one half hour) | Short term stability (XRPD) ([3]; 90° C., one hour) | Medium term stability (XRPD, TGA) ([3]; room temperature, 0% RH, one week) |
| --- | --- | --- | --- | --- | --- | --- | --- | --- | --- | --- | --- | --- | --- | --- | --- | --- |
| C=Cc1cc(O)cc2nc(-c3ccc(O)c(F)c3)oc12 [Anhydrate, 2-(3-fluoro-4-hydroxyphenyl)-7-vinyl-1,3-benzoxazol-5-ol] | chemically stable | largely non-hygroscopic | 0.2% gain (0–90% RH) | did not transform to the monohydrate | did partially transform to the monohydrate | did not show any obvious transformation | did not transform | – | – | – | – | – | – | – | – | – |
| C=Cc1cc(O)cc2nc(-c3ccc(O)c(F)c3)oc12 [Monohydrate, 2-(3-fluoro-4-hydroxyphenyl)-7-vinyl-1,3-benzoxazol-5-ol] | chemically stable | largely non-hygroscopic | 0.1% gain (0–90% RH) | – | – | – | did not transform | significantly lower solubility than the anhydrate | no obvious dehydration | no obvious hydration | partially dehydrated | mostly dehydrated | stable | partially dehydrated | completely dehydrated | no obvious dehydration |
